pIC50, pKi: −log10 of the molar value.
How the values were obtained:
Plasma [1] = experiment: AUC (0 to t) in human MDA-MB-231 cells xenografted SCID mouse plasma at 10 mg/kg, iv administered as single dose; type: ADME, organism-based; set-up: dose 10 mg/kg, route intravenous; conditions: in vivo
Plasma [2] = experiment: Half life in human MDA-MB-231 cells xenografted SCID mouse plasma at 10 mg/kg, iv administered as single dose; type: ADME, organism-based; set-up: dose 10 mg/kg, route intravenous; conditions: in vivo
Plasma [3] = experiment: AUC (0 to t) in human MDA-MB-231 cells xenografted SCID mouse plasma at 10 mg/kg, po administered as single dose; type: ADME, organism-based; set-up: dose 10 mg/kg, route oral; conditions: in vivo
[4] = Tmax in human MDA-MB-231 cells xenografted SCID mouse plasma at 10 mg/kg, po administered as single dose; type: ADME, organism-based; set-up: dose 10 mg/kg, route oral
Plasma [5] = experiment: Half life in human MDA-MB-231 cells xenografted SCID mouse plasma at 10 mg/kg, po administered as single dose; type: ADME, organism-based; set-up: dose 10 mg/kg, route oral; conditions: in vivo
Plasma [6] = experiment: Oral bioavailability in human MDA-MB-231 cells xenografted SCID mouse plasma at 10 mg/kg administered as single dose; type: ADME, organism-based; conditions: in vivo
Plasma [7] = experiment: AUC (0 to t) in human MDA-MB-231 cells xenografted SCID mouse plasma at 30 mg/kg, po administered as single dose; type: ADME, organism-based; set-up: dose 30 mg/kg, route oral; conditions: in vivo
[8] = Tmax in human MDA-MB-231 cells xenografted SCID mouse plasma at 30 mg/kg, po administered as single dose; type: ADME, organism-based; set-up: dose 30 mg/kg, route oral
Plasma [9] = experiment: Half life in human MDA-MB-231 cells xenografted SCID mouse plasma at 30 mg/kg, po administered as single dose; type: ADME, organism-based; set-up: dose 30 mg/kg, route oral; conditions: in vivo
Plasma [10] = experiment: Oral bioavailability in human MDA-MB-231 cells xenografted SCID mouse plasma at 30 mg/kg administered as single dose; type: ADME, organism-based; conditions: in vivo
Plasma [11] = experiment: AUC (0 to t) in human MDA-MB-231 cells xenografted SCID mouse plasma at 100 mg/kg, po administered as single dose; type: ADME, organism-based; set-up: dose 100 mg/kg, route oral; conditions: in vivo
Plasma [12] = experiment: Half life in human MDA-MB-231 cells xenografted SCID mouse plasma at 100 mg/kg, po administered as single dose; type: ADME, organism-based; set-up: dose 100 mg/kg, route oral; conditions: in vivo
Plasma [13] = experiment: Oral bioavailability in human MDA-MB-231 cells xenografted SCID mouse plasma at 100 mg/kg administered as single dose; type: ADME, organism-based; conditions: in vivo
[14] = AUC (0 to t) in human MDA-MB-231 cells xenografted SCID mouse tumor at 10 mg/kg, iv administered as single dose; type: ADME, organism-based, Neoplasm; set-up: dose 10 mg/kg, route intravenous
[15] = Tmax in human MDA-MB-231 cells xenografted SCID mouse tumor at 10 mg/kg, iv administered as single dose; type: ADME, organism-based, Neoplasm; set-up: dose 10 mg/kg, route intravenous
[16] = AUC (0 to t) in human MDA-MB-231 cells xenografted SCID mouse tumor at 10 mg/kg, po administered as single dose; type: ADME, organism-based, Neoplasm; set-up: dose 10 mg/kg, route oral
[17] = Tmax in human MDA-MB-231 cells xenografted SCID mouse tumor at 10 mg/kg, po administered as single dose; type: ADME, organism-based, Neoplasm; set-up: dose 10 mg/kg, route oral
[18] = AUC (0 to t) in human MDA-MB-231 cells xenografted SCID mouse tumor at 30 mg/kg, po administered as single dose; type: ADME, organism-based, Neoplasm; set-up: dose 30 mg/kg, route oral
[19] = Tmax in human MDA-MB-231 cells xenografted SCID mouse tumor at 30 mg/kg, po administered as single dose; type: ADME, organism-based, Neoplasm; set-up: dose 30 mg/kg, route oral
[20] = AUC (0 to t) in human MDA-MB-231 cells xenografted SCID mouse tumor at 100 mg/kg, po administered as single dose; type: ADME, organism-based, Neoplasm; set-up: dose 100 mg/kg, route oral
[21] = Tmax in human MDA-MB-231 cells xenografted SCID mouse tumor at 100 mg/kg, po administered as single dose; type: ADME, organism-based, Neoplasm; set-up: dose 100 mg/kg, route oral
[22] = Inhibition of Cytochrome P450; type: ADME
Canis familiaris = species on record: Canis familiaris; experiment: Toxicity in dog assessed as drug tolerability; type: organism-based, Canis lupus familiaris; conditions: in vivo
[23] = Aqueous solubility of the compound; type: physicochemical; conditions: buffer
[24] = biological target: E3 ubiquitin-protein ligase XIAP (Homo sapiens, UniProt P98170); experiment: Competitive inhibition of human XIAP BIR3 domain expressed in Escherichia coli BL21(DE3) after 2 to 3 hrs by fluorescence polarization assay
[25] = biological target: Baculoviral IAP repeat-containing protein 3 (Homo sapiens, UniProt Q13489); experiment: Competitive inhibition of human cIAP2 BIR3 domain expressed in Escherichia coli BL21(DE3) after 2 to 3 hrs by fluorescence polarization assay
[26] = Toxicity in human MCF12F cells assessed as induction of cell death at 10 uM after 48 hrs by trypan blue exclusion assay; type: cell-based
[27] = Toxicity in human prostate epithelial cells assessed as induction of cell death at 10 uM after 48 hrs by trypan blue exclusion assay; type: cell-based
MDA-MB-231 = experiment: cells; conditions: Homo sapiens, MDA-MB-231, 96 h
SK-OV-3 = experiment: cells; conditions: Homo sapiens, SK-OV-3, 96 h
in vivo [28] = conditions: SCID, mouse, tumor, iv, 10 mg/kg
in vivo [29] = conditions: SCID, mouse, tumor, po, 10 mg/kg
in vivo [30] = conditions: SCID, mouse, tumor, po, 30 mg/kg
in vivo [31] = conditions: SCID, mouse, tumor, po, 100 mg/kg
Mus musculus = experiment: Toxicity in human MDA-MB-231 cells xenografted in SCID mouse at 200 mg/kg, po administered daily for 5 days/week for 2 to 3 weeks; conditions: in vivo

CN[C@@H](C)C(=O)N[C@H]1CN(C(=O)CC(C)C)CC[C@H]2CC[C@@H](C(=O)NC(c3ccccc3)c3ccccc3)N2C1=O [XEVINAPANT]
AUCt (Plasma [1]): 3800 ng·h/mL
t1/2 (Plasma [2]): 3 h
AUCt (Plasma [3]): 1200 ng·h/mL
Tmax [4]: 1 h
t1/2 (Plasma [5]): 2.4 h
F (Plasma [6]): 31%
AUCt (Plasma [7]): 4300 ng·h/mL
Tmax [8]: 2 h
t1/2 (Plasma [9]): 2.3 h
F (Plasma [10]): 38%
AUCt (Plasma [11]): 17400 ng·h/mL
t1/2 (Plasma [12]): 5.4 h
F (Plasma [13]): 46%
AUC(0-t) [14]: 8300 ng·h/mL
Tmax [15]: 0.25 h
AUC(0-t) [16]: 1100 ng·h/mL
Tmax [17]: 1 h
AUC(0-t) [18]: 9600 ng·h/mL
Tmax [19]: 2 h
AUC(0-t) [20]: 57300 ng·h/mL
Tmax [21]: 2 h
inhibition (INH) [22]: Not Active
Activity (Canis familiaris): Non-toxic
solubility [23]: > 50 mg/mL
pIC50 [24]: 6.65
pKi [24]: 7.18
pIC50 [25]: 7.66
pKi [25]: 8.29
Activity [26]: Non-toxic
Activity [27]: Non-toxic
pIC50 (MDA-MB-231): 6.84
pIC50 (SK-OV-3): 6.85
Cmax (in vivo [28]): 3600 ng/mL
Cmax (in vivo [29]): 260 ng/mL
Cmax (in vivo [30]): 2400 ng/mL
Cmax (in vivo [31]): 10800 ng/mL
Activity (Mus musculus): Non-toxic

Source: ChEMBL document CHEMBL2157893, “A potent and orally active antagonist (SM-406/AT-406) of multiple inhibitor of apoptosis proteins (IAPs) in clinical development for cancer treatment” (J Med Chem, 2011)
